The values that follow come from patent US8088791B2, “Antibacterial agents” (Biots Scientific Management Pty Ltd, priority 2006, dated 2012).

In one experiment the test system is Bacillus subtilis 168CA. Kind of experiment: Minimum Inhibitory Concentration (MIC) testing, broth microdilution, Bacillus subtilis. The format is cell-based. The conditions noted are these: Bacillus subtilis 168CA; for MIC: read-out: Bacillus subtilis MICs Activity. The method in brief:
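MICs were scored A (≦8 μg/ml), B (16–64 μg/ml) or C (>64 μg/ml), read as the lowest concentration preventing visible growth by eye and spectrophotometry. Plates incubated overnight (16–20 h) at 37 °C, inoculum OD 0.09 diluted 1:100 in 2× broth, per NCCLS guidelines.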

Experiment [1] has as its system Staphylococcus aureus ATCC29213. Kind of experiment: Minimum Inhibitory Concentration (MIC) testing, broth microdilution, Staphylococcus aureus. The format is cell-based. Conditions: Staphylococcus aureus ATCC29213; for MIC: read-out: Staphylococcus aureus MICs Activity. How it is done:
Compounds of this invention were tested for antimicrobial activity by susceptibility testing in liquid media. MICs for compounds against each strain were determined by a broth microdilution method according to the National Committee for Clinical Laboratory Standards (NCCLS) guidelines. (NCCLS. 2000. Methods for dilution antimicrobial susceptibility tests for bacteria that grow aerobically—fifth edition. Approved standard M7-A5. NCCLS, Wayne, Pa.)
Briefly, test compounds are prepared in 100 μl of 1.6% DMSO solution in multiwell plates. Several bacterial colonies from a freshly streaked plate are transferred to an appropriate rich broth, such as Mueller Hinton. The cell suspension is adjusted to an optical density of 0.09 and further diluted 1:100 with warm 2× broth. This cell suspension is dispensed into the wells containing compound solution so that the final volume is 200 μl. The plates are incubated overnight (16-20 hours) at 37° C. and turbidity is scored by eye and quantified spectrophotometrically. The MIC is defined as the lowest concentration inhibiting visible growth.
Some of the compounds of the Examples were also tested for activity against the pathogenic organism Staphylococcus aureus ATCC29213. […] Activities were again scored as ‘A’ if the MIC was ≦8 micrograms/ml, ‘B’ if the MIC was 16 to 64 micrograms/ml and ‘C’ if the MIC was greater than 64 micrograms/ml.

≈ marks a conversion by molar mass, not a printed value.

As to `COc1ccc(-c2nc(COc3ccc(F)c(C(N)=O)c3F)sc2-c2ccc(O)cc2)cc1` [Example 279, 2,6-Difluoro-3-[5-(4-hydroxy-phenyl)-4-(4-methoxy-phenyl)-thiazol-2-ylmethoxy]-benzamide], the MIC (in the experiment on Bacillus subtilis 168CA; in experiment [1]) was < 8 µg/mL in each case.
With `Cc1ccccc1-c1nc(COc2ccc(F)c(C(N)=O)c2F)sc1Br` [Example 130], the MIC (in the experiment on Bacillus subtilis 168CA; in experiment [1]) was < 8 µg/mL in each case.
As to `NC(=O)c1c(F)ccc(OCc2nccs2)c1F` [Example 191, 2,6-Difluoro-3-(1,3-thiazol-2-ylmethoxy)benzenecarboxamide], the MIC (in the experiment with Bacillus subtilis 168CA; in experiment [1]) was 16 to 64 µg/mL (≈ 59.2 to 237 µM) throughout.
Regarding `C#CCCCCCCCCCOc1ccc(Cl)c(C(N)=O)c1` [Example 69, 2-Chloro-5-(10-undecynyloxy)benzenecarboxamide], the MIC (with Bacillus subtilis 168CA; in experiment [1]) was < 8 µg/mL each time.
`CCCCOC(=O)COc1ccc(F)c(C(N)=O)c1F` [Example 83, Butyl 2-[3-(aminocarbonyl)-2,4-difluorophenoxy]acetate]: the MIC was < 8 µg/mL with Bacillus subtilis 168CA and 16 to 64 µg/mL (≈ 55.7 to 223 µM) in experiment [1].
For `CC(C)=CCC/C(C)=C/CCC(C)COc1cccc(C(N)=O)c1` (centres unmarked) [Example 55, 3-{[(5E)-2,6,10-Trimethyl-5,9-undecadienyl]oxy}benzenecarboxamide] the same measures were < 8 µg/mL and < 8 µg/mL.
The corresponding values for `NC(=O)c1c(F)ccc(OCc2coc(-c3cccs3)n2)c1F` [Example 133, 2,6-Difluoro-3-(2-thiophen-2-yl-oxazol-4-ylmethoxy)-benzamide] are < 8 µg/mL and < 8 µg/mL.
For `COc1ccc(-c2nc(COc3ccc(F)c(C(N)=O)c3F)cs2)cc1` [Example 323, 2,6-Difluoro-3-[2-(4-methoxy-phenyl)-thiazol-4-ylmethoxy]-benzamide], the MIC (in the experiment with Bacillus subtilis 168CA; in experiment [1]) was < 8 µg/mL in each case.
As to `NC(=O)c1c(F)ccc(OCc2nc(-c3cccnc3)no2)c1F` [Example 262, 2,6-Difluoro-3-[3-(3-pyridinyl)-1,2,4-oxadiazol-5-yl]methoxybenzenecarboxamide], the MIC (with Bacillus subtilis 168CA; in experiment [1]) was 16 to 64 µg/mL (≈ 48.2 to 193 µM) throughout.
With `NC(=O)c1c(F)ccc(OCc2cc3ccccc3o2)c1F` [Example 207, 3-(1-Benzofuran-2-ylmethoxy)-2,6-difluorobenzenecarboxamide], the MIC with Bacillus subtilis 168CA was < 8 µg/mL; in experiment [1] it was 16 to 64 µg/mL (≈ 52.8 to 211 µM).
The corresponding values for `CCCCCC/C=C/COc1cccc(C(N)=O)c1` [Example 49, 3-[(E)-2-Nonenyloxy]benzenecarboxamide] are < 8 µg/mL and < 8 µg/mL.
The corresponding values for `CC/C=C\CCCCOc1cccc(C(N)=O)c1` [Example 52, 3-[(Z)-5-Octenyloxy]benzenecarboxamide] are < 8 µg/mL and < 8 µg/mL.
The corresponding values for `Cc1csc(COc2ccc(F)c(C(N)=O)c2F)c1` [Example 187, 2,6-Difluoro-3-[(4-methyl-2-thienyl)methoxy]benzenecarboxamide] are 16 to 64 µg/mL (≈ 56.5 to 226 µM) and 16 to 64 µg/mL (≈ 56.5 to 226 µM).
Turning to `Cc1cccc(COc2cccc(C(N)=O)c2)c1` [Example 29, 3-[(3-Methylbenzyl)oxy]benzenecarboxamide], the MIC (in the experiment on Bacillus subtilis 168CA; in experiment [1]) was 16 to 64 µg/mL (≈ 66.3 to 265 µM) each time.
In the case of `C=CCCCCCOc1cccc(C(N)=O)c1` [Example 17, 3-(6-Heptenyloxy)benzenecarboxamide], the MIC (with Bacillus subtilis 168CA; in experiment [1]) was 16 to 64 µg/mL (≈ 68.6 to 274 µM) throughout.
As for `NC(=O)c1c(Cl)ccc(OCc2nc(-c3ccc(Cl)cc3)no2)c1F` [Example 269, 6-Chloro-3-[3-(4-chloro-phenyl)-[1,2,4]oxadiazol-5-ylmethoxy]-2-fluoro-benzamide], the MIC (with Bacillus subtilis 168CA; in experiment [1]) was < 8 µg/mL in each case.
Take `NC(=O)c1c(F)ccc(OCc2nnc(-c3cccs3)o2)c1F` [Example 152, 2,6-Difluoro-3-(5-thiophen-2-yl-[1,3,4]oxadiazol-2-ylmethoxy)-benzamide]: the MIC (with Bacillus subtilis 168CA; in experiment [1]) was 16 to 64 µg/mL (≈ 47.4 to 190 µM) in each case.
On to `COc1ccc(-c2nc(COc3ccc(F)c(C(N)=O)c3F)sc2-c2ccccn2)cc1` [Example 125, 2,6-Difluoro-3-[4-(4-methoxy-phenyl)-5-pyridin-2-yl-thiazol-2-ylmethoxy]-benzamide], for which the MIC (with Bacillus subtilis 168CA; in experiment [1]) was < 8 µg/mL each time.
With `CCCCCOc1cccc(C(N)=O)c1` [Example 5, 3-(Pentyloxy)benzenecarboxamide], the MIC (in the experiment with Bacillus subtilis 168CA; in experiment [1]) was 16 to 64 µg/mL (≈ 77.2 to 309 µM) each time.
As to `CCCCCCOc1cccc(C(N)=O)c1` [Example 8, 3-(Hexyloxy)benzenecarboxamide], the MIC (with Bacillus subtilis 168CA; in experiment [1]) was 16 to 64 µg/mL (≈ 72.3 to 289 µM) in each case.
As for `CC(Oc1ccc(F)c(C(N)=O)c1F)c1nc2cc(Cl)ccc2s1` (centres unmarked) [Example 124, 3-[1-(5-Ohloro-benzothiazol-2-yl)-ethoxy]-2,6-difluoro-benzamide], the “Bacillus subtilis MICs Activity” value with Bacillus subtilis 168CA was “A (‘A’ if the MIC was ≦8 micrograms/ml)”. Also, the “Staphylococcus aureus MICs Activity” value in experiment [1] is “A (‘A’ if the MIC was ≦8 micrograms/ml)”.
For the compound `COc1ccc(-c2nc(COc3ccc(F)c(C(N)=O)c3F)co2)cc1` [Example 293, 2,6-Difluoro-3-[2-(4-methoxy-phenyl)-oxazol-4-ylmethoxy]-benzamide], the MIC (in the experiment on Bacillus subtilis 168CA; in experiment [1]) was < 8 µg/mL throughout.
Turning to `Cc1cc(COc2ccc(F)c(C(N)=O)c2F)no1` [Example 182, 2,6-Difluoro-3-[(5-methyl-3-isoxazolyl)methoxy]benzenecarboxamide], the MIC (in the experiment with Bacillus subtilis 168CA; in experiment [1]) was > 64 µg/mL in each case.
On to `Cc1csc(COc2ccc(F)c(C(N)=O)c2F)n1` [Example 193, 2,6-Difluoro-3-[(4-methyl-1,3-thiazol-2-yl)methoxy]benzenecarboxamide], for which the MIC (with Bacillus subtilis 168CA; in experiment [1]) was 16 to 64 µg/mL (≈ 56.3 to 225 µM) in each case.
As to `CCCCCC/C=C\COc1cccc(C(N)=O)c1` [Example 47, 3-[(Z)-2-Nonenyloxy]benzenecarboxamide], the results for the MIC (with Bacillus subtilis 168CA; in experiment [1]) were < 8 µg/mL and 16 to 64 µg/mL (≈ 61.2 to 245 µM), respectively.
With `COc1ccc(-c2nc(COc3ccc(F)c(C(N)=O)c3F)sc2-c2ccccc2O)cc1` [Example 277, 2,6-Difluoro-3-[5-(2-hydroxy-phenyl)-4-(4-methoxy-phenyl)-thiazol-2-ylmethoxy]-benzamide], the MIC (in the experiment on Bacillus subtilis 168CA; in experiment [1]) was < 8 µg/mL throughout.
As for `COc1cccc(-c2noc(COc3ccc(F)c(C(N)=O)c3F)n2)c1` [Example 256, 2,6-Difluoro-3-[3-(3-methoxyphenyl)-1,2,4-oxadiazol-5-yl]methoxybenzenecarboxamide], the MIC in the experiment with Bacillus subtilis 168CA was < 8 µg/mL; in experiment [1] it was 16 to 64 µg/mL (≈ 44.3 to 177 µM).
For `NC(=O)c1c(F)ccc(OCc2cc(-c3ccccc3)on2)c1F` [Example 163, 2,6-Difluoro-3-(5-phenyl-isoxazol-3-ylmethoxy)-benzamide] the same measures were < 8 µg/mL and < 8 µg/mL.
For `CCCCOC(=O)COc1cccc(C(N)=O)c1` [Example 41, Butyl 2-[3-(aminocarbonyl)phenoxy]acetate], the MIC (in the experiment with Bacillus subtilis 168CA; in experiment [1]) was 16 to 64 µg/mL (≈ 63.7 to 255 µM) each time.
`NC(=O)c1c(F)ccc(OCc2cccc(OC(F)(F)F)c2)c1F` [Example 107, 2,6-Difluoro-3-(3-trifluoromethoxybenzyloxy)benzamide]: the MIC (with Bacillus subtilis 168CA; in experiment [1]) was < 8 µg/mL throughout.
Consider `Cc1cccc(COc2ccc(F)c(C(N)=O)c2F)c1` [Example 195, 2,6-Difluoro-3-[(3-methylbenzyl)oxy]benzenecarboxamide], for which the values for the MIC (in the experiment with Bacillus subtilis 168CA; in experiment [1]) were < 8 µg/mL and 16 to 64 µg/mL (≈ 57.7 to 231 µM), respectively.
As to `NC(=O)c1c(F)ccc(OCc2nc(-c3ccccc3)co2)c1F` [Example 310, 2,6-Difluoro-3-(4-phenyl-oxazol-2-ylmethoxy)-benzamide], the MIC in the experiment on Bacillus subtilis 168CA was < 8 µg/mL; in experiment [1], 16 to 64 µg/mL (≈ 48.4 to 194 µM).
For `NC(=O)c1c(F)ccc(OCc2nc3cc([N+](=O)[O-])ccc3o2)c1F` [Example 214, 2,6-Difluoro-3-[(5-nitro-1,3-benzoxazol-2-yl)methoxy]benzenecarboxamide] the same measures were 16 to 64 µg/mL (≈ 45.8 to 183 µM) and 16 to 64 µg/mL (≈ 45.8 to 183 µM).
Consider `COc1ccc2sc(COc3ccc(F)c(C(N)=O)c3F)nc2c1` [Example 119, 2,6-Difluoro-3-(5-methoxy-benzothiazol-2-ylmethoxy)-benzamide], for which the MIC (with Bacillus subtilis 168CA; in experiment [1]) was < 8 µg/mL in each case.
Turning to `CCCCC#CCCOc1cccc(C(N)=O)c1` [Example 59, 3-(3-Octynyloxy)benzenecarboxamide], the figures for the MIC (in the experiment with Bacillus subtilis 168CA; in experiment [1]) were < 8 µg/mL and 16 to 64 µg/mL (≈ 65.2 to 261 µM), respectively.
The corresponding values for `CCC1CC1CCCCOc1cccc(C(N)=O)c1` (centres unmarked) [Example 91, 3-[4-(2-Ethylcyclopropyl)butoxy]benzenecarboxamide] are < 8 µg/mL and < 8 µg/mL.
The corresponding values for `CC(C)(C)c1ccc2oc(COc3ccc(F)c(C(N)=O)c3F)nc2c1` [Example 213, 3-[5-(tert-Butyl)-1,3-benzoxazol-2-yl]methoxy-2,6-difluorobenzenecarboxamide] are < 8 µg/mL and 16 to 64 µg/mL (≈ 44.4 to 178 µM).
